Experimental data published in patent US12338223B2 (PURISYS LLC, priority 2019, dated 2025).
≈ marks a conversion by molar mass, not a printed value.

Legend:
[1] = Solubility of CBN in crystallization solvents (solvent screen); assay type: physicochemical; settings: organic solvent or mixture, RT
[2] = biological target: T1, CB1 receptor (Homo sapiens, UniProt P21554); settings: fold lower affinity than THC; cited from earlier work
[3] = biological target: CB2 receptor (Homo sapiens, UniProt P34972); settings: fold lower affinity than THC; cited from earlier work
[4] = biological target: T1, CB1 receptor; settings: cited from earlier work

T1 sequence (P21554 whole entry): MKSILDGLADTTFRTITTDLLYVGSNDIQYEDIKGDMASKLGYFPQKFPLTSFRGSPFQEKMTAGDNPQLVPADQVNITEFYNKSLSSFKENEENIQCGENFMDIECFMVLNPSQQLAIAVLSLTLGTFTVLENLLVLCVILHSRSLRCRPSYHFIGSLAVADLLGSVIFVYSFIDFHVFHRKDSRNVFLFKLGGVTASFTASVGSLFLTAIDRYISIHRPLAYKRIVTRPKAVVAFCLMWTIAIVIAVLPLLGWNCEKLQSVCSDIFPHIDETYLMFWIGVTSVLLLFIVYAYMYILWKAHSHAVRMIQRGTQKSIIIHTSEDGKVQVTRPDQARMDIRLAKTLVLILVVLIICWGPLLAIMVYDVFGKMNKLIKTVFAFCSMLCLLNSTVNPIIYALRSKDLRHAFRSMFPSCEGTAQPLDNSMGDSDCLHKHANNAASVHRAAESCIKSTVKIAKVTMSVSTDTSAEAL
Chain of CB2 receptor (P34972 whole entry): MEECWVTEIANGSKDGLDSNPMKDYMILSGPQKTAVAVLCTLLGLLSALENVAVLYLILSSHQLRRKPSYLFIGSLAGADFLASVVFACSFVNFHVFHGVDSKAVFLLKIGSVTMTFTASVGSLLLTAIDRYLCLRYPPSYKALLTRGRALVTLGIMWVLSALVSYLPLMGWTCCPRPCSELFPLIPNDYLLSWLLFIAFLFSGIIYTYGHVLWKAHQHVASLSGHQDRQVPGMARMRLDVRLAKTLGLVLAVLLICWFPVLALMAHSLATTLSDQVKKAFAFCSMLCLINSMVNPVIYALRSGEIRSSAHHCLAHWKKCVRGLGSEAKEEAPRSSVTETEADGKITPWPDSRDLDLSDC

CCCCCc1cc(O)c2c(c1)OC(C)(C)c1ccc(C)cc1-2 [CBN, cannabinol]
solubility ([1]; solvent Iso-Octane): 24.9 mg/mL (≈ 80.2 mM)
solubility ([1]; solvent n-Heptane): 33.4 mg/mL (≈ 108 mM)
Affinity lower relative to THC [2]: 7- to 8 fold
Affinity lower relative to THC [3]: about 3 fold
Type of activity at CB1 receptors [4]: partial agonist
